Results as given in patent US12139520B2 (priority 2020, dated 2024).
Bridge positions count the residues as written; N and C are the ends. Square brackets hold non-standard residues; d marks the D form. Peptide text beside a SMILES is read from it. Hyp = O=C(O)[C@@H]1C[C@@H](O)CN1; Cit = NC(=O)NCCC[C@H](N)C(=O)O

Experiments:
hAMY3 receptor = molecular target: T1, hAMY3 receptor (Homo sapiens, UniProt O60896+P30988); assay: cAMP assay for in vitro receptor activation, hAMY3-R; format: cell-based; conditions: cAMP assay, hAMY3 receptor; read-out: hAMY3R EC50
T1 sequence (P30988 25-474): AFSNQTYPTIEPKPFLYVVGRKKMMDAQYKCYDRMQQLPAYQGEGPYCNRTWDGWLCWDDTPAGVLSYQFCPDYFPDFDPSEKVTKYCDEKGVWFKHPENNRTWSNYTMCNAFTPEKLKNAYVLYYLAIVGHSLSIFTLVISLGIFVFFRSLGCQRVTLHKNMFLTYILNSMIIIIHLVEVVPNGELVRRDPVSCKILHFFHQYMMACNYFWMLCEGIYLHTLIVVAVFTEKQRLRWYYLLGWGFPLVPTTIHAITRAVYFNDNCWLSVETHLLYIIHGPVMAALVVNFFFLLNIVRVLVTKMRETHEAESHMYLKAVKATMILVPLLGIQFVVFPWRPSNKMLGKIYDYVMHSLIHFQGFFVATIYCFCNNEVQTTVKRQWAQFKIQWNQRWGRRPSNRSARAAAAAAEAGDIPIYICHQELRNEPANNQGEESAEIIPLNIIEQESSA
T1 sequence (O60896 24-148 partner): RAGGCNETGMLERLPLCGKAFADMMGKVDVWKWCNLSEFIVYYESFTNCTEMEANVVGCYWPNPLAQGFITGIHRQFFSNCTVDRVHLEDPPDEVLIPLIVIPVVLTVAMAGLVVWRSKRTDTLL
How it was run: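 Accumulated cAMP was detected by time-resolved FRET one hour after reagent addition. Beforehand, hAMY3-R-overexpressing monoclonal cells (2000/well, DPBS, 0.05% casein, 0.5 mM IBMX) received graded doses of compound for 30 min at room temperature; human amylin served as positive control.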

[1] = Physical stability of peptide analogues (Thioflavin T fibrillation); format: physicochemical; conditions: maximum ThT signal normalized between hAMY maximum and buffer background; 40° C., shaking, four days; pH 7 per table title
How it was run: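 ThT fluorescence (450 nm excitation, 480 nm emission; 4 μM dye) was read every 10 min over four days at 40° C under 700 rpm shaking stress, after 1 h in pH 4 acetate or pH 7 phosphate (50 mM). Peak smoothed signal expressed as percent, scaled between buffer background and hAMY maximum.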

EC50 (hAMY3 receptor) [nM] | Max ThT signal (%) [1] [%] | SMILES
0.031 | 6.800 | CC[C@H](C)[C@H](NC(=O)[C@H](CCC(N)=O)NC(=O)[C@H](Cc1c[nH]cn1)NC(=O)[C@H](C)NC(=O)[C@H](CC(C)C)NC(=O)[C@H](CCCNC(=N)N)NC(=O)[C@H](CCC(N)=O)NC(=O)[C@@H](NC(=O)[C@@H](NC(=O)[C@@H]1CSSC[C@H](NC(=O)CN)C(=O)N[C@@H](CCCNC(=N)N)C(=O)N[C@@H](Cc2ccccc2)C(=O)NCC(=O)N[C@@H]([C@@H](C)O)C(=O)N1)[C@@H](C)O)C(C)C)C(=O)N[C@@H](Cc1ccc(O)cc1)C(=O)N[C@@H](CCC(N)=O)C(=O)N[C@@H](Cc1ccccc1)C(=O)N[C@H](C(=O)N[C@@H](CC(=O)O)C(=O)N[C@@H](CCCCN)C(=O)N[C@@H](CC(=O)O)C(=O)N[C@@H](CCCCN)C(=O)N[C@@H](CC(=O)O)C(=O)N[C@@H](CC(N)=O)C(=O)N[C@H](C(=O)N[C@@H](C)C(=O)N1CCC[C@H]1C(=O)N[C@@H](CCCNC(=N)N)C(=O)N[C@@H](CO)C(=O)N[C@@H](CC(N)=O)C(=O)N[C@H](C(=O)N[C@@H](CO)C(=O)N1CCC[C@H]1C(=O)N[C@@H](CCC(N)=O)C(=O)NCC(=O)N[C@@H](Cc1ccc(O)cc1)C(N)=O)C(C)C)C(C)C)[C@@H](C)O [compound 131] (H-GCRFGTCTVQRLAHQIYQFTDKDKDNVAPRSNVSPQGY-NH2; disulfide 2-7)
0.016 | 20.950 | CC[C@H](C)[C@H](NC(=O)[C@H](CCC(N)=O)NC(=O)[C@H](Cc1c[nH]cn1)NC(=O)[C@H](C)NC(=O)[C@H](CC(C)C)NC(=O)[C@H](CCCNC(N)=O)NC(=O)[C@H](CCC(N)=O)NC(=O)[C@@H](NC(=O)[C@@H](NC(=O)[C@@H]1CSSC[C@H](NC(=O)[C@@H](N)CCCCN)C(=O)N[C@@H](CC(N)=O)C(=O)N[C@@H]([C@@H](C)O)C(=O)N[C@@H](C)C(=O)N[C@@H]([C@@H](C)O)C(=O)N1)[C@@H](C)O)C(C)C)C(=O)N[C@@H](Cc1ccc(O)cc1)C(=O)N[C@@H](CCC(N)=O)C(=O)N[C@@H](Cc1ccccc1)C(=O)N[C@H](C(=O)N[C@@H](CC(=O)O)C(=O)N[C@@H](CCCCN)C(=O)N[C@@H](CC(=O)O)C(=O)N[C@@H](CCCCN)C(=O)N[C@@H](CC(=O)O)C(=O)N[C@@H](CC(N)=O)C(=O)N[C@H](C(=O)N[C@@H](C)C(=O)N1CCC[C@H]1C(=O)N[C@@H](CCCNC(=N)N)C(=O)N[C@H](C(=O)N[C@@H](CCCCN)C(=O)N[C@H](C(=O)NCC(=O)N[C@@H](CO)C(=O)N[C@@H](CC(N)=O)C(=O)NCC(=O)N[C@@H](Cc1ccc(O)cc1)C(N)=O)C(C)C)[C@@H](C)O)C(C)C)[C@@H](C)O [compound 257] (H-KCNTATCTVQ[Cit]LAHQIYQFTDKDKDNVAPRTKVGSNGY-NH2; disulfide 2-7; N-terminus assumed)
0.112 | 6.000 | CC[C@H](C)[C@H](NC(=O)[C@H](CCC(N)=O)NC(=O)[C@H](Cc1c[nH]cn1)NC(=O)[C@H](C)NC(=O)[C@H](CC(C)C)NC(=O)[C@H](CCCNC(=N)N)NC(=O)[C@H](CCC(N)=O)NC(=O)[C@@H](NC(=O)[C@@H](NC(=O)[C@@H]1CSSC[C@H](NC(=O)[C@@H](N)CCCCN)C(=O)N[C@@H](CCCNC(=N)N)C(=O)N[C@@H](CCSC)C(=O)NCC(=O)N[C@@H]([C@@H](C)O)C(=O)N1)[C@@H](C)O)C(C)C)C(=O)N[C@@H](Cc1ccc(O)cc1)C(=O)N[C@@H](CCC(N)=O)C(=O)N[C@@H](Cc1ccccc1)C(=O)N[C@H](C(=O)N[C@@H](CC(=O)O)C(=O)N[C@@H](CCCCN)C(=O)N[C@@H](CC(=O)O)C(=O)N[C@@H](CCCCN)C(=O)N[C@@H](CC(=O)O)C(=O)N[C@@H](CC(N)=O)C(=O)N[C@H](C(=O)N[C@@H](C)C(=O)N1CCC[C@H]1C(=O)N[C@@H](CCCNC(=N)N)C(=O)N[C@@H](CO)C(=O)N[C@@H](CCCCN)C(=O)N[C@H](C(=O)N[C@@H](CO)C(=O)N1CCC[C@H]1C(=O)N[C@@H](CCC(N)=O)C(=O)N[C@H](C(=O)N1C[C@H](O)C[C@H]1C(N)=O)[C@@H](C)O)[C@@H](C)CC)C(C)C)[C@@H](C)O [compound 194] (H-KCRMGTCTVQRLAHQIYQFTDKDKDNVAPRSKISPQT[Hyp]-NH2; disulfide 2-7; N-terminus assumed)
0.033 | 3.300 | CC[C@H](C)[C@H](NC(=O)[C@H](CCC(N)=O)NC(=O)[C@H](Cc1c[nH]cn1)NC(=O)[C@H](C)NC(=O)[C@H](CC(C)C)NC(=O)[C@H](CCCNC(=N)N)NC(=O)[C@H](CCC(N)=O)NC(=O)[C@@H](NC(=O)[C@@H](NC(=O)[C@@H]1CSSC[C@H](NC(=O)CN)C(=O)N[C@@H](CCCNC(=N)N)C(=O)N[C@@H](Cc2ccccc2)C(=O)NCC(=O)N[C@@H]([C@@H](C)O)C(=O)N1)[C@@H](C)O)C(C)C)C(=O)N[C@@H](Cc1ccc(O)cc1)C(=O)N[C@@H](CCC(N)=O)C(=O)N[C@@H](Cc1ccccc1)C(=O)N[C@H](C(=O)N[C@@H](CC(=O)O)C(=O)N[C@@H](CCCCN)C(=O)N[C@@H](CC(=O)O)C(=O)N[C@@H](CCCCN)C(=O)N[C@@H](CC(=O)O)C(=O)N[C@@H](CC(N)=O)C(=O)N[C@H](C(=O)N[C@@H](C)C(=O)N1CCC[C@H]1C(=O)N[C@@H](CCCNC(=N)N)C(=O)N[C@@H](CO)C(=O)N[C@@H](CC(N)=O)C(=O)N[C@H](C(=O)NCC(=O)N1CCC[C@H]1C(=O)N[C@@H](CCC(N)=O)C(=O)NCC(=O)N1C[C@H](O)C[C@H]1C(N)=O)C(C)C)C(C)C)[C@@H](C)O [compound 135] (H-GCRFGTCTVQRLAHQIYQFTDKDKDNVAPRSNVGPQG[Hyp]-NH2; disulfide 2-7; N-terminus assumed)
0.026 | 1.800 | CC[C@H](C)[C@H](NC(=O)[C@H](CCC(N)=O)NC(=O)[C@H](Cc1c[nH]cn1)NC(=O)[C@H](C)NC(=O)[C@H](CC(C)C)NC(=O)[C@H](CCCNC(=N)N)NC(=O)[C@H](CCC(N)=O)NC(=O)[C@@H](NC(=O)[C@@H](NC(=O)[C@@H]1CSSC[C@H](NC(=O)CN)C(=O)N[C@@H](CCCNC(=N)N)C(=O)N[C@@H]([C@@H](C)O)C(=O)NCC(=O)N[C@@H]([C@@H](C)O)C(=O)N1)[C@@H](C)O)C(C)C)C(=O)N[C@@H](Cc1ccc(O)cc1)C(=O)N[C@@H](CCC(N)=O)C(=O)N[C@@H](Cc1ccccc1)C(=O)N[C@H](C(=O)N[C@@H](CC(=O)O)C(=O)N[C@@H](CCCCN)C(=O)N[C@@H](CC(=O)O)C(=O)N[C@@H](CCCCN)C(=O)N[C@@H](CC(=O)O)C(=O)N[C@@H](CC(N)=O)C(=O)N[C@H](C(=O)N[C@@H](C)C(=O)N1CCC[C@H]1C(=O)N[C@@H](CCCNC(=N)N)C(=O)N[C@@H](CO)C(=O)N[C@@H](CC(N)=O)C(=O)N[C@H](C(=O)NCC(=O)N1CCC[C@H]1C(=O)N[C@@H](CCC(N)=O)C(=O)NCC(=O)N1C[C@H](O)C[C@H]1C(N)=O)C(C)C)C(C)C)[C@@H](C)O [compound 121] (H-GCRTGTCTVQRLAHQIYQFTDKDKDNVAPRSNVGPQG[Hyp]-NH2; disulfide 2-7; N-terminus assumed)
0.051 | 3.250 | CC[C@H](C)[C@H](NC(=O)[C@H](CCC(N)=O)NC(=O)[C@H](Cc1c[nH]cn1)NC(=O)[C@H](C)NC(=O)[C@H](CC(C)C)NC(=O)[C@H](Cc1c[nH]c2ccccc12)NC(=O)[C@H](CCC(N)=O)NC(=O)[C@@H](NC(=O)[C@@H](NC(=O)[C@@H]1CSSC[C@H](NC(=O)CN)C(=O)N[C@@H](CCCNC(=N)N)C(=O)N[C@@H](Cc2ccccc2)C(=O)NCC(=O)N[C@@H]([C@@H](C)O)C(=O)N1)[C@@H](C)O)C(C)C)C(=O)N[C@@H](Cc1ccc(O)cc1)C(=O)N[C@@H](CCC(N)=O)C(=O)N[C@@H](Cc1ccccc1)C(=O)N[C@H](C(=O)N[C@@H](CC(=O)O)C(=O)N[C@@H](CCCCN)C(=O)N[C@@H](CC(=O)O)C(=O)N[C@@H](CCCCN)C(=O)N[C@@H](CC(=O)O)C(=O)N[C@@H](CC(N)=O)C(=O)N[C@H](C(=O)N[C@@H](C)C(=O)N1CCC[C@H]1C(=O)N[C@@H](CCCNC(=N)N)C(=O)N[C@@H](CO)C(=O)N[C@@H](CC(N)=O)C(=O)N[C@H](C(=O)N[C@@H](CO)C(=O)N1CCC[C@H]1C(=O)N[C@@H](CCC(N)=O)C(=O)NCC(=O)N[C@@H](Cc1ccc(O)cc1)C(N)=O)C(C)C)C(C)C)[C@@H](C)O [compound 345] (H-GCRFGTCTVQWLAHQIYQFTDKDKDNVAPRSNVSPQGY-NH2; disulfide 2-7; N-terminus assumed)
